The text below walks through data of US7935532B2, “DWF4 polynucleotides, polypeptides and uses thereof” (Arizona Board of Regents for and on behalf of Arizona State …, priority 1999, dated 2011).

In assay [1] the test system is dwf4 seedlings. In words: Feeding of BR biosynthetic intermediates to dwf4 seedlings in liquid media (rescue, dose-response). The class given is in vivo, Arabidopsis thaliana. The note with it: for rescue of the light-grown dwf4 phenotype: liquid media. As for the experimental part: In view of the results described above, we hypothesized that DWF4 mediates one or more of several steroid hydroxylation steps in the BR biosynthetic pathway. To test this, dwf4 was grown on all of the available biosynthetic intermediates in the BR biosynthetic pathways and examined to ascertain which intermediates could rescue the dwarf phenotype. In addition to the intermediates belonging to the early C-6 oxidation and late C-6 oxidation pathways (Choi et al. (1997), supra), 22α-hydroxycampesterol (22-OHCR), 6α-hydroxycastasterone (6-OHCT) (Takatsuto et al. (1997) J. Chem. Res. (synop.) 11:418-419), and […] (S. Takatsuto, T. Watanabe, T. Noguchi, and S. Fujioka, unpublished data) were synthesized and tested.
Germinated seedlings were transferred to media supplemented with one of the intermediates or BL to pinpoint the step catalyzed by DWF4. […] In addition, the rescued seedlings were less green than the dwarfs. These experiments were conducted in liquid media. Feeding experiments performed in the dark yielded similar results.
However, on CT the overall morphology of dwf4 was essentially rescued to wild-type phenotype at 3×10^−7 M and higher, whereas with 6-deoxoCT, rescue occurred with as little as 10^−7 M and may have even been inhibitory at higher concentrations. Of particular interest is the more dramatic response of the epicotyls versus the smaller response of the hypocotyls to CT. This same phenomenon was true for seedlings treated with >10^−7 M 6-deoxoCT.
A higher concentration of CT for dark-grown seedlings, compared with light-grown seedlings, 3×10^−6 M (FIG. 5B), was required to convert the hypocotyl to a length similar to that of the wild type.

The subject of a further assay is rice lamina. To be noted: Fujioka et al. (1995b); cited from earlier work.
The next assay relates to dwf8-1. In words: Feeding of 22-OHCR to dwf8-1 dwarf mutant. Type of assay: in vivo, Arabidopsis thaliana. The note with it: unpublished data.
The next assay deals with 6-week-old dwf4 plants. In words: Treatment of soil-grown mature dwf4 plants with BR intermediates and BL (pedicel elongation). Type of assay: in vivo, Arabidopsis thaliana. As for the experimental part: To determine whether the results of the seedling feeding experiments could be applicable to soil-grown mature plants, 6-week-old dwf4 plants were treated with BR intermediates and BL. Concentrations of applied intermediates were adjusted empirically to optimize responses. Consistent with the results obtained from the seedlings experiments, only 22α-hydroxylated compounds can rescue the dwf4 phenotype. The elongation response was only observed in the young tissues of the inflorescence, regardless of whether the BRs were applied locally or sprayed over the entire plant. In contrast to the striking elongation of the peduncles and pedicels, fertility was not restored by BR treatment. The sterility in dwf4 is hypothesized to be mechanical, which means that the filaments are shorter than the carpels such that the pollen is shed onto the ovary walls rather than onto the stigmatic surface. In fact, if dwf4 plants are hand pollinated using […], fertility increases.

In assay [2] the test system is dwf4 seedlings. As to the kind of experiment: Brassinolide response of seedlings in liquid culture (hypocotyl length). Type of assay: in vivo, Arabidopsis thaliana. To be noted: liquid medium, 10^−6 M BL. As for the experimental part: Gibberellic acid (GA) response was assayed on plants grown individually in 5.7-cm pots. Once inflorescences reached 1 to 2 mm in height, they were sprayed weekly with 1 mM GA3 (Sigma). Control plants were sprayed with water. One week after the third spraying, plants were collected, and the length of the main stem was measured between the top of the rosette and the base of the most distal pedicel; 13 to 18 plants of each line were measured per treatment. Auxin response was tested by growing seedlings for 10 days under 16 hr of light on vertically oriented agar plates containing various concentrations of 2,4-D (Gibco, Grand Island, N.Y.). Genetic interaction with the hy2 mutation was tested by growing seedlings under continuous light for 7 days. Brassinolide (BL) response was determined in liquid culture, as described by Clouse et al. (1993) supra, except that three or four seedlings were grown in each well of a 24-well culture plate for 7 days. Measurements were taken for 10 to 20 seedlings for each genotype and condition, under a dissection microscope fitted with an ocular micrometer.
In the course of our studies, we prepared a genomic library from dwf4-1, from which we isolated a clone in which a fragment of T-DNA interrupts a gene encoding a putative cytochrome P450 steroid hydroxylase.

As to `CC(C)[C@H](C)C[C@H](O)[C@@H](C)[C@H]1CC[C@H]2[C@@H]3CC(=O)[C@H]4C[C@@H](O)CC[C@]4(C)[C@H]3CC[C@]12C` [CT, Cathasterone], in the assay with dwf4 seedlings [1] (dark-grown seedlings), the “concentration required to convert the dwf4 hypocotyl to a length similar to wild type” value amounted to 3 µM. In the assay on dwf4 seedlings [1] (light-grown seedlings, dose-response), the “concentration at which dwf4 overall morphology is rescued to wild-type phenotype” value is reported as ≥ 3×10^−7 M. The “rescue of the light-grown dwf4 phenotype” value with dwf4 seedlings [1] (light-grown seedlings) is “rescued”. Moreover, the “activity relative to 6-oxoCN” value in the assay on rice lamina is about 500 times.
In the case of `CC(C)[C@H](C)C[C@H](O)[C@@H](C)[C@H]1CC[C@H]2[C@@H]3CC=C4C[C@@H](O)CC[C@]4(C)[C@H]3CC[C@]12C` [22-OHCR, 22α-hydroxycampesterol], the “rescue of the light-grown dwf4 phenotype” value in the assay with dwf4 seedlings [1] (light-grown seedlings) is listed as “rescued”. Moreover, the “effectiveness in rescuing the dwf4 phenotype, light versus dark” value in the assay with dwf4 seedlings [1] (unpublished data) is “more effective in the light”. The “rescue of dwf8-1 dwarf mutant” value in the assay on dwf8-1 is given as “not rescued”. In addition, in the assay on 6-week-old dwf4 plants (22-OHCR 10^−5 M), the pedicel elongation response result is reported as “dramatic elongation response”.
As to `CC(C)[C@H](C)[C@@H](O)[C@H](O)[C@@H](C)[C@H]1CC[C@H]2[C@@H]3COC(=O)[C@H]4C[C@H](O)[C@H](O)C[C@]4(C)[C@H]3CC[C@]12C` [BL, 2α, 3α, 22(R), 23(R)-tetrahydroxy-24(S)-methyl-B-homo-7-oxa-5α-cholestan-6-one], the dwf4 hypocotyl height result in the assay with dwf4 seedlings [2] is on record as “restored to wild-type height”. In the assay with 6-week-old dwf4 plants (BL 10^−7 M), the “bioactivity in dwf4 pedicel elongation” value is listed as “highest bioactivity”. Besides, the “degree of pedicel elongation response” value with 6-week-old dwf4 plants (BL 10^−7 M versus precursors) is recorded as “approximately the same degree of response as its precursor compounds at 10^−6 M”.
